# Data as given in US10174037B2, “Dihydropyrazolopyrimidinone compounds as PDE2 inhibitors” (Merck Sharp & Dohme Corp., priority 2015, dated 2019).
# Biological target: human PDE2A1 (Homo sapiens (Human), UniProt O00408)
# Assay: PDE selectivity IMAP FP assay, human PDE2A1
# Type: biochemical
# Conditions: Human PDE2; Lab B; read-out: Human PDE2 Ki (nM) Lab B
# Method in brief: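 IMAP fluorescence polarization assay; PDE2 substrate 50 nM FAM-cAMP containing 1000 nM cGMP, enzyme diluted for 20% substrate conversion, in 10 mM Tris HCl pH 7.2, 10 mM MgCl2, 1 mM DTT. Reaction 60 min at room temperature, stopped with IMAP binding solution; polarization read after 1 h. Ki reported.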
# Sequence of human PDE2A1 (O00408 other isoform, or with tags, fused parts or gaps): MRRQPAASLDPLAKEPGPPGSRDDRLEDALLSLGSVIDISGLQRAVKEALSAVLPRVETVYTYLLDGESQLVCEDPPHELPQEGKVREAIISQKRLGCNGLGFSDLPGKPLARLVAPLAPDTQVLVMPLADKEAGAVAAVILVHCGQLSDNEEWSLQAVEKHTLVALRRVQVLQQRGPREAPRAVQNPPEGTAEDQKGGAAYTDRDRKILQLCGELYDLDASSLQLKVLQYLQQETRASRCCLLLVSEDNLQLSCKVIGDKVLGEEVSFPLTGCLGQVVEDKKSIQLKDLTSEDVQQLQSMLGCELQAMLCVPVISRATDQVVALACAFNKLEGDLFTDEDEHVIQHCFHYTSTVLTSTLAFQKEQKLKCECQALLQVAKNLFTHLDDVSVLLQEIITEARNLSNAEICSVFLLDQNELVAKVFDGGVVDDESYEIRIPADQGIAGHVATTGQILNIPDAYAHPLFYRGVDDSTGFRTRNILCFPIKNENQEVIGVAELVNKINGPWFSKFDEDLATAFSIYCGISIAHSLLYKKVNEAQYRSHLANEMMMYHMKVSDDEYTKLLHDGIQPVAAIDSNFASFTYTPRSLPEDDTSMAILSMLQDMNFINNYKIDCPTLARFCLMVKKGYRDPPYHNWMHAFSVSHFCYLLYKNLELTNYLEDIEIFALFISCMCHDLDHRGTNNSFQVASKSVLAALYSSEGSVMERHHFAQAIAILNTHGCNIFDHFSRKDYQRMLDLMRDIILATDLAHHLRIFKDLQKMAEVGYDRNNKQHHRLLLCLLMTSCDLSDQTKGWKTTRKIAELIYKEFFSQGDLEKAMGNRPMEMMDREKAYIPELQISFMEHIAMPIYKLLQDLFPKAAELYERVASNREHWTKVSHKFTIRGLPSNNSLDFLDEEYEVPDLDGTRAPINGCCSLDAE
row,SMILES,Ki [nM]
1,"CCC(c1ccc(C(F)(F)F)cc1)n1nc(C(F)(F)F)c2c(=O)[nH]c(O)nc21 (single isomer, unassigned) [Example 331, (R)- or (S)-6-Hydroxy-3-(trifluoromethyl)-1-(1-(4-(trifluoromethyl)phenyl)propyl)-1H-pyrazolo[3,4-d]pyrimidin-4(5H)-one]",346
2,"CCC(c1ccc(C(F)(F)F)cc1)n1nc(C(F)(F)F)c2c(=O)[nH]c(O)nc21 (single isomer, unassigned) [Example 332, (S)- or (R)-6-hydroxy-3-(trifluoromethyl)-1-(1-(4-(trifluoromethyl)phenyl)propyl)-1H-pyrazolo[3,4-d]pyrimidin-4(5H)-one]",3.3
3,"CC(C)C(c1ccc(C(F)(F)F)cc1)n1nc(C(F)(F)F)c2c(=O)[nH]c(O)nc21 (single isomer, unassigned) [Example 333, (R)- or (S)-6-Hydroxy-1-(2-methyl-1-(4-(trifluoromethyl)phenyl)propyl)-3-(trifluoromethyl)-1H-pyrazolo[3,4-d]pyrimidin-4(5H)-one]",134
4,"CC(C)C(c1ccc(C(F)(F)F)cc1)n1nc(C(F)(F)F)c2c(=O)[nH]c(O)nc21 (single isomer, unassigned) [Example 334, (S)- or (R)-6-Hydroxy-1-(2-methyl-1-(4-(trifluoromethyl)phenyl)propyl)-3-(trifluoromethyl)-1H-pyrazolo[3,4-d]pyrimidin-4(5H)-one]",2.3
5,"O=c1[nH]c(O)nc2c1c(C(F)(F)F)nn2C(c1ccc(C(F)(F)F)cc1)C1CC1 (single isomer, unassigned) [Example 335, (R)- or (S)-1-(Cyclopropyl(4-(trifluoromethyl)phenyl)methyl)-6-hydroxy-3-(trifluoromethyl)-1H-pyrazolo[3,4-d]pyrimidin-4(5H)-one]",137
6,"O=c1[nH]c(O)nc2c1c(C(F)(F)F)nn2C(c1ccc(C(F)(F)F)cc1)C1CC1 (single isomer, unassigned) [Example 336, (S)- or (R)-1-(Cyclopropyl(4-(trifluoromethyl)phenyl)methyl)-6-hydroxy-3-(trifluoromethyl)-1H-pyrazolo[3,4-d]pyrimidin-4(5H)-one]",3.2
7,"CC(C)(C)C(c1ccc(C(F)(F)F)cc1)n1nc(C(F)(F)F)c2c(=O)[nH]c(O)nc21 (single isomer, unassigned) [Example 337, (R)- or (S)-1-(2,2-Dimethyl-1-(4-(trifluoromethyl)phenyl)propyl)-6-hydroxy-3-(trifluoromethyl)-1H-pyrazolo[3,4-d]pyrimidin-4(5H)-one]",2360
8,"CC(C)(C)C(c1ccc(C(F)(F)F)cc1)n1nc(C(F)(F)F)c2c(=O)[nH]c(O)nc21 (single isomer, unassigned) [Example 338, (S)- or (R)-1-(2,2-Dimethyl-1-(4-(trifluoromethyl)phenyl)propyl)-6-hydroxy-3-(trifluoromethyl)-1H-pyrazolo[3,4-d]pyrimidin-4(5H)-one]",373
9,"CCC(c1ccc(OC(F)F)c(F)c1)n1nc(CF)c2c(=O)[nH]c(N(C)C)nc21 (single isomer, unassigned) [Example 340, (R)- or (S)-1-(1-(4-(Difluoromethoxy)-3-fluorophenyl)propyl)-6-(dimethylamino)-3-(fluoromethyl)-1H-pyrazolo[3,4-d]pyrimidin-4(5H)-one]",0.58
10,"CCC(c1ccc(OC(F)F)c(F)c1)n1nc(CF)c2c(=O)[nH]c(N(C)C)nc21 (single isomer, unassigned) [Example 341, (S)- or (R)-1-(1-(4-(Difluoromethoxy)-3-fluorophenyl)propyl)-6-(dimethylamino)-3-(fluoromethyl)-1H-pyrazolo[3,4-d]pyrimidin-4(5H)-one]",0.15
11,"CCC(c1ccc(OC(F)F)cc1F)n1nc(CF)c2c(=O)[nH]c(N(C)C)nc21 (single isomer, unassigned) [Example 342, (R)- or (S)-1-(1-(4-(Difluoromethoxy)-2-fluorophenyl)propyl)-6-(dimethylamino)-3-(fluoromethyl)-1H-pyrazolo[3,4-d]pyrimidin-4(5H)-one]",0.1
12,"CCC(c1ccc(OC(F)F)cc1F)n1nc(CF)c2c(=O)[nH]c(N(C)C)nc21 (single isomer, unassigned) [Example 343, (S)- or (R)-1-(1-(4-(Difluoromethoxy)-2-fluorophenyl)propyl)-6-(dimethylamino)-3-(fluoromethyl)-1H-pyrazolo[3,4-d]pyrimidin-4(5H)-one]",1.7
13,"CCC(c1ccc(C(F)F)c(F)c1)n1nc(CF)c2c(=O)[nH]c(N(C)C)nc21 (single isomer, unassigned) [Example 344, (R)- or (S)-1-(1-(4-(Difluoromethyl)-3-fluorophenyl)propyl)-6-(dimethylamino)-3-(fluoromethyl)-1H-pyrazolo[3,4-d]pyrimidin-4(5H)-one]",6.3
14,"CCC(c1ccc(C(F)F)c(F)c1)n1nc(CF)c2c(=O)[nH]c(N(C)C)nc21 (single isomer, unassigned) [Example 345, (S)- or (R)-1-(1-(4-(Difluoromethyl)-3-fluorophenyl)propyl)-6-(dimethylamino)-3-(fluoromethyl)-1H-pyrazolo[3,4-d]pyrimidin-4(5H)-one]",0.13
15,"CCC(c1ccc(C(F)F)cc1)n1nc(CF)c2c(=O)[nH]c(N(C)C)nc21 (single isomer, unassigned) [Example 346, (R)- or (S)-1-(1-(4-(Difluoromethyl)phenyl)propyl)-6-(dimethylamino)-3-(fluoromethyl)-1H-pyrazolo[3,4-d]pyrimidin-4(5H)-one]",6.5
16,"CCC(c1ccc(C(F)F)cc1)n1nc(CF)c2c(=O)[nH]c(N(C)C)nc21 (single isomer, unassigned) [Example 347, (S)- or (R)-1-(1-(4-(Difluoromethyl)phenyl)propyl)-6-(dimethylamino)-3-(fluoromethyl)-1H-pyrazolo[3,4-d]pyrimidin-4(5H)-one]",0.08
17,"CCC(c1ccc(C(F)F)cc1F)n1nc(CF)c2c(=O)[nH]c(N(C)C)nc21 (single isomer, unassigned) [Example 348, (R)- or (S)-1-(1-(4-(difluoromethyl)-2-fluorophenyl)propyl)-6-(dimethylamino)-3-(fluoromethyl)-1H-pyrazolo[3,4-d]pyrimidin-4(5H)-one]",0.03
18,"CCC(c1ccc(C(F)F)cc1F)n1nc(CF)c2c(=O)[nH]c(N(C)C)nc21 (single isomer, unassigned) [Example 349, (S)- or (R)-1-(1-(4-(difluoromethyl)-2-fluorophenyl)propyl)-6-(dimethylamino)-3-(fluoromethyl)-1H-pyrazolo[3,4-d]pyrimidin-4(5H)-one]",4
19,"CN(C)c1nc2c(c(CO)nn2C(c2ccc(C(C)(F)F)c(F)c2)C2CC2)c(=O)[nH]1 (single isomer, unassigned) [Example 350, (R)- or (S)-1-(Cyclopropyl(4-(1,1-difluoroethyl)-3-fluorophenyl)methyl)-6-(dimethylamino)-3-(hydroxymethyl)-1H-pyrazolo[3,4-d]pyrimidin-4(5H)-one]",0.14
20,"CN(C)c1nc2c(c(CO)nn2C(c2ccc(C(C)(F)F)c(F)c2)C2CC2)c(=O)[nH]1 (single isomer, unassigned) [Example 351, (S)- or (R)-1-(Cyclopropyl(4-(1,1-difluoroethyl)-3-fluorophenyl)methyl)-6-(dimethylamino)-3-(hydroxymethyl)-1H-pyrazolo[3,4-d]pyrimidin-4(5H)-one]",0.02
21,"CN(C)c1nc2c(c(CO)nn2C(c2ccc(C(C)(F)F)cc2F)C2CC2)c(=O)[nH]1 (single isomer, unassigned) [Example 352, (R)- or (S)-1-(Cyclopropyl(4-(1,1-difluoroethyl)-2-fluorophenyl)methyl)-6-(dimethylamino)-3-(hydroxymethyl)-1H-pyrazolo[3,4-d]pyrimidin-4(5H)-one]",1.2
22,"CN(C)c1nc2c(c(CO)nn2C(c2ccc(C(C)(F)F)cc2F)C2CC2)c(=O)[nH]1 (single isomer, unassigned) [Example 353, (S)- or (R)-1-(Cyclopropyl(4-(1,1-difluoroethyl)-2-fluorophenyl)methyl)-6-(dimethylamino)-3-(hydroxymethyl)-1H-pyrazolo[3,4-d]pyrimidin-4(5H)-one]",0.05
23,"CC(C)C(c1ccc(C(C)(F)F)cc1)n1nc(CO)c2c(=O)[nH]c(N)nc21 (single isomer, unassigned) [Example 356]",0.68
24,"CC(C)C(c1ccc(C(C)(F)F)cc1)n1nc(CO)c2c(=O)[nH]c(N)nc21 (single isomer, unassigned) [Example 357]",19
25,"CNc1nc2c(c(CO)nn2C(c2ccc(C(C)(F)F)cc2)C(C)C)c(=O)[nH]1 (single isomer, unassigned) [Example 358]",5.3
26,"CNc1nc2c(c(CO)nn2C(c2ccc(C(C)(F)F)cc2)C(C)C)c(=O)[nH]1 (single isomer, unassigned) [Example 359]",0.33
27,"C[C@@H](c1ccc(C(F)(F)F)cc1)n1nc(CO)c2c(=O)[nH]c(NCCCCl)nc21 [Example 155, 6-[(3-Chloropropyl)amino]-3-(hydroxymethyl)-1-{(1S)-1-[4-(trifluoromethyl)-phenyl]ethyl}-1,5-dihydro-4H-pyrazolo[3,4-d]pyrimidin-4-one]",3.8
28,"C[C@@H](c1ccc(C(F)(F)F)cc1)n1nc(CO)c2c(=O)[nH]c(N)nc21 [Example 157, 6-Amino-3-(hydroxymethyl)-1-{(1S)-1-[4-(trifluoromethyl)phenyl]ethyl}-1,5-dihydro-4H-pyrazolo[3,4-d]pyrimidin-4-one]",12
29,"C[C@@H](c1ccc(C(F)(F)F)cc1)n1nc(CO)c2c(=O)[nH]c(N3CCC3)nc21 [Example 158, (S)-6-(Azetidin-1-yl)-3-(hydroxymethyl)-1-(1-(4-(trifluoromethyl)phenyl)ethyl)-1,5-dihydro-4H-pyrazolo[3,4-d]pyrimidin-4-one]",0.89
